Results on two molecules are retold here after patent US7312223B2, “Metabolite of xanthine Phosphodiesterase 5 inhibitor and derivatives thereof useful for treatment of erectile dysfunction” (Schering Corporation, priority 2003, dated 2007).

SMILES strings stand for the structures. “Also recorded” adds a separate entry of the source.

The IC50 is the midpoint of a concentration-inhibition curve.

Series [1] is described as follows: Incubation of Compound A with pooled human liver microsomes and NADPH-generating system. In kind it is in vitro ADME. The protocol: (§1) Compound C was prepared via a biotransformation from Compound A. In vitro incubations of Compound A (1, 5 and 50 μM) were performed with pooled human liver microsomes and CYP3A4 SUPERSOMES®. This radiolabel allowed tracking of all the metabolites of Compound A. For this procedure, Compound A was synthesized by inserting a ^14C in the 4 position as indicated in the ring member numbering scheme below.
(§2) Incubation mixtures contained cytochrome P450 (1 nmol/mL for human liver microsomes or 0.2 nmol/mL for CYP3A4), β-NADP^+ (1 mM), glucose-6-phosphate (5 mM), glucose-6-phosphate dehydrogenase (1.5 units/mL) and 3 mM magnesium chloride in 0.5 mL of 50 mM potassium phosphate buffer (pH 7.4). Prior to the addition of drug, incubation mixtures were pre-incubated for 3 min at about 37° C. […] Boiled human liver microsomes and incubations without NADPH served as negative control. […]
(§3) Radiometric profiles of metabolites following 120 min incubation of Compound A (50 μM) with CYP3A4, Human Liver Microsomes, and Insect Microsomes, all with a NADPH-generating system, are shown in FIGS. 1, 2, and 3, respectively. In these figures, the y-axis reflects radioactivity of the eluted species and has units of counts per minute, while the x-axis reflects time of elution and has units of minutes. […] Mass-to-charge ratios are measured by mass spectrometry.

A further series deals with T1, CYP3A4 (Homo sapiens, UniProt P08684).
T1 construct: purchased; host or cells: An insect cell host is inferred from the 'Insect Microsomes' control
Put plainly: Incubation of Compound A with CYP3A4 SUPERSOMES and NADPH-generating system. In kind it is in vitro ADME. The protocol:
as §1, §2, §3

Series [2] can be described thus: Incubation of Compound A with Control Insect Microsomes and NADPH-generating system. In kind it is in vitro ADME. The following applies: Compound A 50 μM, 120 min, Control Insect Microsomes, FIG. 3. The protocol: Incubation mixtures contained cytochrome P450 (1 nmol/mL for human liver microsomes or 0.2 nmol/mL for CYP3A4), β-NADP^+ (1 mM), glucose-6-phosphate (5 mM), glucose-6-phosphate dehydrogenase (1.5 units/mL) and 3 mM magnesium chloride in 0.5 mL of 50 mM potassium phosphate buffer (pH 7.4). Prior to the addition of drug, incubation mixtures were pre-incubated for 3 min at about 37° C. […] Boiled human liver microsomes and incubations without NADPH served as negative control. A discussion of HPLC is provided in “HPLC in Pharmaceutical Analysis,” vol. I, G. Szepesi (1990). A discussion of mass spectrometry is provided in “Remington: The Science and Practice of Pharmacy,” 20th Ed., D. Limmer, ed., pp. 636-639 (2000).
Radiometric profiles of metabolites following 120 min incubation of Compound A (50 μM) with CYP3A4, Human Liver Microsomes, and Insect Microsomes, all with a NADPH-generating system, are shown in FIGS. 1, 2, and 3, respectively. In these figures, the y-axis reflects radioactivity of the eluted species and has units of counts per minute, while the x-axis reflects time of elution and has units of minutes. Each peak represents one or more compounds, and each of the more significant peaks is labeled with the mass-to-charge ratio value (m/z) of that compound. Mass-to-charge ratios are measured by mass spectrometry.

Series [3] concerns the target T2, PDE 5 (Homo sapiens, UniProt O76074). The note with it: disclosed in U.S. Ser. No. 09/940,760; cited from earlier work.
The target in series [4] is T2, PDE 5. Description: PDE 5 inhibitory activity. The following applies: target not stated at the place; PDE 5 from context. In kind it is biochemical.
Series [5] is described as follows: Circulating metabolites after single oral administration of Compound A to humans. Format: in vivo. The following applies: single administration of Compound A 100 mg PO.

T1 sequence (P08684 whole entry): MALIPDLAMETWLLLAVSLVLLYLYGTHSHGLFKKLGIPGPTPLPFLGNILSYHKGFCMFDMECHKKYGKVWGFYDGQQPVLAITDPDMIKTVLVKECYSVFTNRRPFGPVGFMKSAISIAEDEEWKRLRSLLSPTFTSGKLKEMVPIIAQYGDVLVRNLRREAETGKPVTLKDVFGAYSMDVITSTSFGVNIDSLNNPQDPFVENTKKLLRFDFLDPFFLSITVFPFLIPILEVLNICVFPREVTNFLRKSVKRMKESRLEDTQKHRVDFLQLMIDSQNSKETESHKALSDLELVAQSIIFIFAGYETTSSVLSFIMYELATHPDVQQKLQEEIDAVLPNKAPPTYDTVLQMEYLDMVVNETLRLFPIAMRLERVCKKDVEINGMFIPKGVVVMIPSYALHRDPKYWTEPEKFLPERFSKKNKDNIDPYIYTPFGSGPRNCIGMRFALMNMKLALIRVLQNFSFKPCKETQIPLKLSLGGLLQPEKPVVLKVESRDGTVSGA

As for `CCn1c(=O)c2c(nc(N[C@@H]3CCC[C@H]3O)n2Cc2ccc(OC)c(Br)c2)n(CCO)c1=O` [Compound A], in series [1] (1, 5 and 50 μM, human liver microsomes 1 nmol/mL, NADPH-generating system), the extent of metabolism entry was “metabolized extensively”. Further, the “activity with respect to the formation of Compound C” value at CYP3A4 (50 μM Compound A, cDNA-expressed CYP3A4) is reported as “exhibited the greatest activity”. Also, the metabolite formation entry in series [2] is “no major metabolite formation was observed”. Moreover, the “PDE 5 inhibitory activity” value on PDE 5 [3] is “having PDE 5 inhibitory activity”.

Take `CCn1c(=O)c2c(nc(N)n2Cc2ccc(OC)c(Br)c2)n(CCO)c1=O` [Compound C, 8-Amino-7-[(3-Bromo-4-Methoxyphenyl)Methyl]-1-Ethyl-3,7-Dihydro-3-(2-Hydroxyethyl)-1H-Purine-2,6-Dione]: the IC50 at PDE 5 [4] was 71 nM. Besides, the “metabolite formed from Compound A (radiometric profile)” value in series [1] (Compound A 50 μM, 120 min, Human Liver Microsomes, FIG. 2) was “significant metabolite”; at CYP3A4 (Compound A 50 μM, 120 min, CYP3A4, FIG. 1), “significant metabolite”. In series [5], the “circulating metabolite in human” value was “one of the major circulating metabolites; also recorded: prominent circulating metabolite”.
